Test results taken from patent US20250064941A1, “SIGLEC LIGANDS, CONJUGATES, AND METHODS OF USE THEREOF” (Osprey Biopharmaceuticals, Inc., priority 2023, published 2025).

Tests used:
[1] = biological target: T1, mouse Siglec-2-Fc-Avi (CD22) (Mus musculus, UniProt P35329); assay: SPR binding affinity to mouse CD22; settings: steady-state analysis
T1 construct: made in house
T1 sequence (P35329 22-708 limits assumed): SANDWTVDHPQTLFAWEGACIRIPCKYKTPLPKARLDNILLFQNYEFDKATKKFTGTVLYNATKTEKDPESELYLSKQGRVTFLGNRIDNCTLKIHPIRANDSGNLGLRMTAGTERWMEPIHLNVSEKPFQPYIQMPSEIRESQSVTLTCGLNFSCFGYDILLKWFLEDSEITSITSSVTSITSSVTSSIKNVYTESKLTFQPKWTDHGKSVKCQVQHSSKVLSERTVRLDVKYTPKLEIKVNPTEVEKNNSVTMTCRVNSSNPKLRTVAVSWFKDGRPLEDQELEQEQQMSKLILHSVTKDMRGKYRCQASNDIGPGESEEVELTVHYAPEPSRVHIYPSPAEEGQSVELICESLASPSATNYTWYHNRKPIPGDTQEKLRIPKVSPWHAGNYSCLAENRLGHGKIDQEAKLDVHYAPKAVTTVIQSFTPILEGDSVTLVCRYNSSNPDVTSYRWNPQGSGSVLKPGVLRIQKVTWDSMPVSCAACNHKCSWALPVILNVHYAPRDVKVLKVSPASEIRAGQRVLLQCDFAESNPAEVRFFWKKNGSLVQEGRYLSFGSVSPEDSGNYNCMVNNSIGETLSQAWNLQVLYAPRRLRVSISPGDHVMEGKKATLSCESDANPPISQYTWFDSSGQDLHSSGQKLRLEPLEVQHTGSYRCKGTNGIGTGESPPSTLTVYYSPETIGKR
In short: (§1)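 Steady-state fits gave the affinities. Before capture on a streptavidin surface, biotinylated CD22 had native sialic acids stripped (SialoExo, 4 hours, 37° C.). Running buffer: 10 mM HEPES pH 7.5, 150 mM NaCl, 0.05% Tween-20, 1% DMSO, with DMSO solvent correction.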

[2] = biological target: T2, human Siglec-2/CD22 protein (Homo sapiens, UniProt P20273); assay: SPR binding affinity to human CD22; settings: steady-state analysis
T2 construct: purchased Acro Biosystems SI2-H82E3
T2 sequence (P20273 20-847): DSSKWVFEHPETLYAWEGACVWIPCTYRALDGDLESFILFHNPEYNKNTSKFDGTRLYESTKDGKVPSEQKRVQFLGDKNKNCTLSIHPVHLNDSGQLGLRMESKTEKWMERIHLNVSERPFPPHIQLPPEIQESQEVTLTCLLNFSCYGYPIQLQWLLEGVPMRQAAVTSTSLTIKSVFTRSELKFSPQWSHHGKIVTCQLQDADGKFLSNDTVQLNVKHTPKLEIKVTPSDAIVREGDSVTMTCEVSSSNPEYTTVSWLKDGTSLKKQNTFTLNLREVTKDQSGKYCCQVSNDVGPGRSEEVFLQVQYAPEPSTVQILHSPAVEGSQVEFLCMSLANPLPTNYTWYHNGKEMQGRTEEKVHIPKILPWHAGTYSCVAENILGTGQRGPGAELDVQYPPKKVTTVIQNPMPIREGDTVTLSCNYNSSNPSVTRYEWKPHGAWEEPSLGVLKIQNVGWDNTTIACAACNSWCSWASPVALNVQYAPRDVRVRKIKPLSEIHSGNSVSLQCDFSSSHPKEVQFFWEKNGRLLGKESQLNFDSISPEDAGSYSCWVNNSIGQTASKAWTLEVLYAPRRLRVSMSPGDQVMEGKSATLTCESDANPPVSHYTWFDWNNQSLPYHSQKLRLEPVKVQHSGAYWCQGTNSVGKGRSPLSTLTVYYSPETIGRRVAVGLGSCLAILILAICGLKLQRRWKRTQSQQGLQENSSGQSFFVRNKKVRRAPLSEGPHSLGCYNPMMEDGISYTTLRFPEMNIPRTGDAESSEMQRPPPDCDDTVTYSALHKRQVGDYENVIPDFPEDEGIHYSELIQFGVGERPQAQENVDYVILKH
In short: as §1

cynomolgus Siglec-2/CD22 = cynomolgus Siglec-2/CD22 (Macaca fascicularis, UniProt A0A2K5WCZ6); assay: biochemical; type: binding; settings: SPR, steady-state analysis; read-out: Affinity cyno CD22
cynomolgus Siglec-2/CD22, sequence (A0A2K5WCZ6 entry or part of it): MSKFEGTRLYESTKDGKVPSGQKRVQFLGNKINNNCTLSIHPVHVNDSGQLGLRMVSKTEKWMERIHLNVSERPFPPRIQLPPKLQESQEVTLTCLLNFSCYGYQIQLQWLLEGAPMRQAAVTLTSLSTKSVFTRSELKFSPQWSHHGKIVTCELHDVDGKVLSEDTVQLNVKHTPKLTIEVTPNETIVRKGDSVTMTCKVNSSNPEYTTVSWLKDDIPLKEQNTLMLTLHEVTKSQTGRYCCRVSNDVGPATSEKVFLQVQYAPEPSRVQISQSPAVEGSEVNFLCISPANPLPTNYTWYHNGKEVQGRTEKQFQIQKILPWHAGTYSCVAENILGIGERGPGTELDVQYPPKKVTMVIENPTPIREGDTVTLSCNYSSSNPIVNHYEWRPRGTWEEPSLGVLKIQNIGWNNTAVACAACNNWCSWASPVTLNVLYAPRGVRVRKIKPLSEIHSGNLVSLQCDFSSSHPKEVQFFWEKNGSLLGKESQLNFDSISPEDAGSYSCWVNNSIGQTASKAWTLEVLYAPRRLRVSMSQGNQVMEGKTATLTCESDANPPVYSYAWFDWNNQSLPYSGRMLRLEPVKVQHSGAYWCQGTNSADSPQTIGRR
In short: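 SPR with desialylated (SialoExo, 4 h, 37° C.) cynomolgus CD22 amine-coupled to a CM5 chip. Running buffer 10 mM HEPES, 150 mM NaCl, 0.05% Tween-20, pH 7.5, 1% DMSO, with solvent correction; 120 s dissociation. Affinities from steady-state analysis.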

| Compound | Kd [1] [nM] | Kd [2] [nM] | Kd (cynomolgus Siglec-2/CD22) [nM] |
| --- | --- | --- | --- |
| CC(=O)NCCOCCOCCOCCOCCC(=O)NCCCCCCO[C@]1(C(=O)O)C[C@H](O)[C@@H](NC(C)=O)[C@H]([C@H](O)[C@H](O)CNC(=O)c2cccc(Cl)c2)O1 [Compound 271, (2R,4S,5R,6R)-5-acetamido-6-((1R,2R)-3-(3-chlorobenzamido)-1,2-dihydroxypropyl)-2-((2,18-dioxo-6,9,12,15-tetraoxa-3,19-diazapentacosan-25-yl)oxy)-4-hydroxytetrahydro-2H-pyran-2-carboxylic acid] | > 10000 | 1000 to 10000 | 1000 to 10000 |
| C#CCOCCCCCCO[C@]1(C(=O)O)C[C@H](O)[C@@H](NCC(=O)NC)[C@H]([C@H](O)[C@H](O)CNC(=O)Cc2ccc(Cl)cc2)O1 [Compound 181, (2R,4S,5R,6R)-6-((1R,2R)-3-(2-(4-chlorophenyl)acetamido)-1,2-dihydroxypropyl)-4-hydroxy-5-((2-(methylamino)-2-oxoethyl)amino)-2-((6-(prop-2-yn-1-yloxy)hexyl)oxy)tetrahydro-2H-pyran-2-carboxylic acid] | 1000 to 10000 | 1000 to 10000 | 1000 to 10000 |
| CC(=O)NCCOCCOCCOCCOCc1cn(CCOCCOCCO[C@]2(C(=O)O)C[C@H](O)[C@@H](NC(=O)CO)[C@H]([C@H](O)[C@H](O)CNC(=O)Cc3ccc(Cl)cc3)O2)nn1 [Cpd. 260, (2R,4S,5R,6R)-6-((1R,2R)-3-(2-(4-chlorophenyl)acetamido)-1,2-dihydroxypropyl)-4-hydroxy-5-(2-hydroxyacetamido)-2-(2-(2-(2-(4-(15-oxo-2,5,8,11-tetraoxa-14-azahexadecyl)-1H-1,2,3-triazol-1-yl)ethoxy)ethoxy)ethoxy)tetrahydro-2H-pyran-2-carboxylic acid] | 1000 to 10000 | 1000 to 10000 | 1000 to 10000 |
| C#CCOCc1cn([C@]2(C(=O)O)C[C@H](O)[C@@H](NC(=O)CO)[C@H]([C@H](O)[C@H](O)CNC(=O)Cc3ccc(-c4ccc(O)cc4)cc3)O2)nn1 [Compound 62, (2R,4S,5R,6R)-6-((1R,2R)-1,2-dihydroxy-3-(2-(4′-hydroxy-[1,1′-biphenyl]-4-yl)acetamido)propyl)-4-hydroxy-5-(2-hydroxyacetamido)-2-(4-((prop-2-yn-1-yloxy)methyl)-1H-1,2,3-triazol-1-yl)tetrahydro-2H-pyran-2-carboxylic acid] | 1000 to 10000 | 1000 to 10000 | 1000 to 10000 |
| C#CCOCCCCCCO[C@]1(C(=O)O)C[C@H](O)[C@@H](NC(N)=O)[C@H]([C@H](O)[C@H](O)CNC(=O)Cc2ccc(Cl)cc2)O1 [Cpd. 86, (2R,4S,5R,6R)-6-((1R,2R)-3-(2-(4-chlorophenyl)acetamido)-1,2-dihydroxypropyl)-4-hydroxy-2-((6-(prop-2-yn-1-yloxy)hexyl)oxy)-5-ureidotetrahydro-2H-pyran-2-carboxylic acid] | < 1000 | < 1000 | 1000 to 10000 |
| C#CCCCCCCO[C@]1(C(=O)O)C[C@H](O)[C@@H](NC(=O)CO)[C@H]([C@H](O)[C@H](O)CNC(=O)c2cccc(Oc3ccccc3)c2)O1 [Compound 40, (2R,4S,5R,6R)-6-((1R,2R)-1,2-dihydroxy-3-(3-phenoxybenzamido)propyl)-4-hydroxy-5-(2-hydroxyacetamido)-2-(oct-7-yn-1-yloxy) tetrahydro-2H-pyran-2-carboxylic acid] | 1000 to 10000 | < 1000 | < 1000 |
| C#CCCCCCCS[C@]1(C(=O)O)C[C@H](O)[C@@H](NC(=O)CO)[C@H]([C@H](O)[C@H](O)CNC(=O)Cc2cccc(O)c2)O1 [Compound 141, (2S,4S,5R,6R)-6-((1R,2R)-1,2-dihydroxy-3-(2-(3-hydroxyphenyl)acetamido)propyl)-4-hydroxy-5-(2-hydroxyacetamido)-2-(oct-7-yn-1-ylthio)tetrahydro-2H-pyran-2-carboxylic acid] | < 1000 | < 1000 | 1000 to 10000 |
| CC(=O)NCCOCCOCCOCCOCCNC(=O)CCOCCO[C@]1(C(=O)O)C[C@H](O)[C@@H](NC(=O)CO)[C@H]([C@H](O)[C@H](O)CNC(=O)Cc2ccc(-c3ccccc3)cc2)O1 [Compound 238, (2R,4S,5R,6R)-6-((1R,2R)-3-(2-([1,1′-biphenyl]-4-yl)acetamido)-1,2-dihydroxypropyl)-2-((2,19-dioxo-6,9,12,15,22-pentaoxa-3,18-diazatetracosan-24-yl)oxy)-4-hydroxy-5-(2-hydroxyacetamido) tetrahydro-2H-pyran-2-carboxylic acid] | 1000 to 10000 | 1000 to 10000 | 1000 to 10000 |
| C#CCOCCCCCCO[C@]1(C(=O)O)C[C@H](O)[C@@H](NC(=O)NCCO)[C@H]([C@H](O)[C@H](O)CNC(=O)Cc2ccc(Cl)cc2)O1 [Compound 185, (2R,4S,5R,6R)-6-((1R,2R)-3-(2-(4-chlorophenyl)acetamido)-1,2-dihydroxypropyl)-4-hydroxy-5-(3-(2-hydroxyethyl)ureido)-2-((6-(prop-2-yn-1-yloxy)hexyl)oxy)tetrahydro-2H-pyran-2-carboxylic acid] | 1000 to 10000 | 1000 to 10000 | < 1000 |
| C#CCCOc1ccc(CO[C@]2(C(=O)O)C[C@H](O)[C@@H](NC(=O)CO)[C@H]([C@H](O)[C@H](O)CNC(=O)Cc3ccc4nc[nH]c4c3)O2)cc1 [Compound 8, (2R,4S,5R,6R)-6-((1R,2R)-3-(2-(1H-benzo[d]imidazol-6-yl)acetamido)-1,2-dihydroxypropyl)-2-((4-(but-3-yn-1-yloxy)benzyl)oxy)-4-hydroxy-5-(2-hydroxyacetamido)tetrahydro-2H-pyran-2-carboxylic acid] | 1000 to 10000 | 1000 to 10000 | 1000 to 10000 |
| C#CCOCCCCCCO[C@]1(C(=O)O)C[C@H](O)[C@@H](NC(=O)CO)[C@H]([C@H](O)[C@H](O)CNC(=O)Cc2ccc(OC(F)(F)F)cc2)O1 [Compound 156, (2R,4S,5R,6R)-6-((1R,2R)-1,2-dihydroxy-3-(2-(4-(trifluoromethoxy)phenyl)acetamido)propyl)-4-hydroxy-5-(2-hydroxyacetamido)-2-((6-(prop-2-yn-1-yloxy)hexyl)oxy)tetrahydro-2H-pyran-2-carboxylic acid] | 1000 to 10000 | < 1000 | < 1000 |
| C#CCOCCCCCCO[C@]1(C(=O)O)C[C@H](O)[C@@H](NC(=O)NCC(F)(F)F)[C@H]([C@H](O)[C@H](O)CNC(=O)Cc2ccc(Cl)cc2)O1 [Compound 193, (2R,4S,5R,6R)-6-((1R,2R)-3-(2-(4-chlorophenyl)acetamido)-1,2-dihydroxypropyl)-4-hydroxy-2-((6-(prop-2-yn-1-yloxy)hexyl)oxy)-5-(3-(2,2,2-trifluoroethyl)ureido)tetrahydro-2H-pyran-2-carboxylic acid] | 1000 to 10000 | 1000 to 10000 | 1000 to 10000 |
| C#CCOCCOCCO[C@]1(C(=O)O)C[C@H](O)[C@@H](NC(=O)CNC(C)=O)[C@H]([C@H](O)[C@H](O)CNC(=O)Cc2ccc(-c3ccc(O)cc3)cc2)O1 [Compound 57, (2R,4S,5R,6R)-5-(2-acetamidoacetamido)-6-((1R,2R)-1,2-dihydroxy-3-(2-(4′-hydroxy-[1,1′-biphenyl]-4-yl)acetamido)propyl)-4-hydroxy-2-(2-(2-(prop-2-yn-1-yloxy)ethoxy)ethoxy)tetrahydro-2H-pyran-2-carboxylic acid] | > 10000 | 1000 to 10000 | 1000 to 10000 |
